Columns and labels:
[1] = biological target: T1, NKCC1 (Homo sapiens, UniProt P55011); assay: Tl+ flux assay, HEK-293 cells expressing NKCC1; type: cell-based; details: read-out: concentration at which effects on NKCC1 were seen
T1 construct: expressed in transfected cells; host or cells: HEK-293
T1 sequence (P55011 1-1212): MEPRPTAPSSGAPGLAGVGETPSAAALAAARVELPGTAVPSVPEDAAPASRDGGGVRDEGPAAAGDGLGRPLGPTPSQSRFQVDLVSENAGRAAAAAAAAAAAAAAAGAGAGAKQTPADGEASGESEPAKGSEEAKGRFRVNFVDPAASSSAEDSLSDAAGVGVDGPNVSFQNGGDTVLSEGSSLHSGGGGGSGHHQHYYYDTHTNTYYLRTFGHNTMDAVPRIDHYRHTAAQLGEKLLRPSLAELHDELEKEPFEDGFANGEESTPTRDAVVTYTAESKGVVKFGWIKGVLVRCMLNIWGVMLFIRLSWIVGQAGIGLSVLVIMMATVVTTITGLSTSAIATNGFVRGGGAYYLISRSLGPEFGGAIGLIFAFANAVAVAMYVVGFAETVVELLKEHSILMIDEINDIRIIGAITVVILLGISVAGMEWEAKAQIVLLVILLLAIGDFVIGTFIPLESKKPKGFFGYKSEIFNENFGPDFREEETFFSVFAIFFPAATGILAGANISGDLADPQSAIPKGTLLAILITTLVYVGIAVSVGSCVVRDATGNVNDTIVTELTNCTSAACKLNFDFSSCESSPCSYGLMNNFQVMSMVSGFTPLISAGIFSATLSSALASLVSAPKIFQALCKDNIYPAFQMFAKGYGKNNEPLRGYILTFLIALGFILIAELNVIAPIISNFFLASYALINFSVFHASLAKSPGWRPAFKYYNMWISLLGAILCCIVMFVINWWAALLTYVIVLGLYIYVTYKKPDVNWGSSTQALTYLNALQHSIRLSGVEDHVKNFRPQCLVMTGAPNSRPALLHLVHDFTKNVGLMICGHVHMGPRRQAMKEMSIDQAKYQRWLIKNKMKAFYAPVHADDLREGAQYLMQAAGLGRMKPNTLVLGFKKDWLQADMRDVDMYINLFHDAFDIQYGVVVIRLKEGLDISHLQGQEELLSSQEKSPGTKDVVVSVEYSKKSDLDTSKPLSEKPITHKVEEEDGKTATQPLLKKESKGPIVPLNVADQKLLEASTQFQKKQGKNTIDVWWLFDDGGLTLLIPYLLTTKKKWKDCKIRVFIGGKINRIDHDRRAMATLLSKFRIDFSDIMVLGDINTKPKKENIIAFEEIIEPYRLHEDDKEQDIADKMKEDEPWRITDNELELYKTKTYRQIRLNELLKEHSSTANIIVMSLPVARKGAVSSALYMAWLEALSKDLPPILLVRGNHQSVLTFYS
Experimental: FLIPR TI Flux assay. HEK-293 cells were washed with HBSS, and then incubated with loading buffer containing TI sensitive fluorescent dye (https://www.moleculardevices.com), 20 μM bumetanide 20 μM ouabain and 2.5 mM probenecid for 1 h at room temperature (RT) under control conditions or with drugs in the dark using a FlexStation 3 microplate reader (Molecular Devices) and imaged […] for 30 min. Stimulus buffer was added containing 5 mM K^+/0.5 mM Tl^+ and cells were imaged every 1.5 over a 190 second time course The initial rate Tl^+ uptake (Relative Fluorescence Units (RFU) per second) was determined following addition of the stimulus buffer as outlined previously (Conway et al., 2017, supra) (Lee et al., 2022, supra).
Compared to KCC2, effects on KCC3, KCC4, and NKCC1 were only seen at concentrations more than 35-fold that of KCC2 (>100 μM) (FIG. 1G).

[2] = system: 18-20 Div hippocampal neurons; assay: Gramicidin perforated patch clamp, EGABA in hippocampal neurons; type: cell-based, Sprague Dawley
Experimental: Neuronal Cultures. Hippocampal neurons were prepared from Sprague Dawley E18 embryos and plated at 450,000 per dish and maintained at 37° C. in a humidified 5% CO2 incubator for 10-25 days before experimentation (Lee et al., Nat. Neurosci. 14, 736-743 (2011)).
At this developmental stage, GABAAR receptor activation leads to hyperpolarization, a phenomenon critically dependent upon KCC2 (Kontou et al., J Biol Chem, 100364 (2021)).
Neuronal Patch clamp assays. Neuronal cell culture recordings were performed in bath saline at 34° C. For gramicidin perforated-patch experiments, pipettes contained (in mM): 140 KCl and 10 HEPES, pH 7.4 KOH. […] Bath saline contained the following (in mM): 140 NaCl, 2.5 KCl, 2.5 CaCl2, 2.5 MgCl2, 10 HEPES, and 11 glucose, pH 7.4 NaOH (Kontou et al., 2021, supra). All compound solutions were applied to cells using a three-barreled 700 μm pipe positioned just above the cell (Warner Instruments). […] 10 mV voltage-ramp protocols over 1-s periods were used to determine the reversal potentials of the leak-subtracted muscimol-activated GABAAR currents. All voltages from whole-cell experiments were corrected offline using a calculated liquid junction potential value (13.6 mV) in Clampex (Molecular Devices). For gramicidin perforated-patch experiments, intracellular Cl^− values were back-calculated using measured EGABA values and the Nernst equation: […]
Measurements were performed in the presence of bumetanide […] and tetrodotoxin (TTX; 300 nM) to limit the contributions of NKCC1 and activity dependent shifts in chloride levels, respectively (Lee et al., 2011, supra).

[3] = PK study, brain and plasma levels by LC-MS/MS; type: in vivo; details: mice
[4] = system: acute brain slices; assay: Late recurrent discharges in acute brain slices exposed to 0-Mg
[5] = system: hippocampus; assay: Neuronal cell death in the hippocampus, Compound A with diazepam; type: in vivo; details: mice, Compound A and diazepam vs diazepam alone

C[C@@H]1CN(c2nc3c(c(Nc4ccc(C5CCCCC5)cc4)n2)COC3)CCO1 [Compound A, (R)—N-(4-cyclohexylphenyl)-2-(2-methylmorpholino)-5,7-dihydrofuro[3,4-d]pyrimidin-4-amine]
EC50 [1]: > 100 µM | EGABA at 0 min ([2]; 300 nM group, before treatment, bumetanide and TTX present): −75±3.1 mV | EGABA at 15 min ([2]; 300 nM, 15 min, bumetanide and TTX present): −85.1±4.2 mV | reduction in Cl− ([2]; 300 nM, 15 min, from EGABA by Nernst equation): 2.2 ± 0.6 mM | time at which accumulation in the brain was detected ([3]; 50 mg/kg SC): 30 min | time by which accumulation in the brain was evident ([3]; single 25 mg/kg IV bolus): ≤ 30 min | development of late recurrent discharges (LRDs) [4]: reduced | neuronal cell death in the hippocampus [5]: significantly reduced
